Experimental data: patent publication US11098081B2, “Epitope tag and method for detection and/or purification of tagged polypeptides” (ChromoTek GmbH, priority 2015, dated 2021)
pKd: −log10 of the molar value. Ends that are not written are not given here.

Key:
[1] = system: BC2 nanotrap; test: Elution of bound BC2-tagged protein from the BC2 nanotrap; format: binding; details: for GFPBC2T detected in elution fraction: competitive elution
Description: […] Aliquots of released (R) and bound (B) fractions were analyzed by immunoblotting with an anti-GFP antibody.
For the elution experiments 40 μl of BC2 nanotrap (slurry) were incubated with 400 μl soluble protein extract (c=1 mg/ml) derived from E. coli cells expressing GFPBC2T for 1 h at 4° C. on an end-over-end rotor. After a centrifugation step (2500×g, 4° C., 2 min) the supernatant was discarded and the beads were washed four times in ice-cold PBS including a cup change after the second washing step. Subsequently, beads were pelleted and incubated with 80 μl of the indicated elution conditions for 15 min at RT. […] 0.1 mM or 1 mM BC2-peptide dissolved in 0.2 M Tris/Cl pH 7.4, 150 mM NaCl; acidic elution: 0.2 M Glycine-HCl adjusted to pH 1. pH 2 or pH 3; alkaline elution: 0 mM. 1 mM, 10 mM or 100 mM NaOH; elution with sodium thiocyanate. 0 M, 1 M, 2 M, or 3 M NaSCN. The eluates were collected and boiled in 1×SDS containing sample buffer and the remaining beads were washed twice in PBS before boiling in 40 μl 2× sample buffer. 10% of each elution (release, R) and bead bound (bound, B) fraction were analyzed by SDS-PAGE and immunoblotting using an anti-GFP antibody.

[2] = system: BC2-Nb; test: Biolayer interferometry of immobilised biotinylated BC2T peptides with BC2-Nb; format: binding, Vicugna pacos; details: for kon (M^−1s^−1): association rate constant; for pKd: biotinylated peptide on Streptavidin biosensor, BC2-Nb 5-50 nM, 1:1 binding model; for koff (s^−1): dissociation rate constant
Description: Biolayer interferometry (BLI)-based affinity measurements were used to assess two improved variations of the original BC2T sequence (a: […], pTag1 SEQ ID NO:33, b. […], pTag2 SEQ ID NO:34) in comparison with the original BC2T sequence (c: BC2T SEQ ID NO:4) BC2T and improved variations thereof were synthesized as peptides with an N-terminal biotin attached through an ethylene glycol linker and immobilised on Streptavidin biosensors. Binding kinetics were analysed by incubating immobilised peptides with 4-5 concentrations of BC2-Nb (5-50 nM) and evaluated using a 1:1 binding model.
Listed are the dissociation constant (KD), the association […] and dissociation (koff) rate constants and markers of the quality of fit of a 1:1 binding model (χ^2, R^2). The constants reported for original BC2T differ from those listed in Table 1 because kinetics were analysed using a different method.
The affinity measurements of BC2-Nb to BC2T and improved variations pTag1 and pTag2 were performed using biolayer interferometry using a BLItz system instrument (fortéBIO). Biotinylated peptide of BC2T and its variations were immobilised on Streptavidin biosensors (fortéBIO). The loaded sensor was sequentially dipped into BLItz buffer (phosphate buffered saline, 0.1% (m/v) BSA, 0.02% (v/v) Tween20) for 120 s to determine base line signal, in a solution of BC2-Nb in BLItz buffer (concentration of 5-50 nM) for 120 s to determine association and in BLItz buffer for 600 s to determine dissociation. The shaking rate was 1200 rpm. As a reference, each peptide was also incubated with BLItz buffer only according to the protocol above. In a control experiment, Streptavidin biosensors were incubated with BC2-Nb without prior peptide immobilisation. The sensor was regenerated by sequential dips into 10 mM glycine pH 2.0 and BLItz buffer (repeated three times). Raw data were analysed using the software BLItz Pro (fortéBio) and a 1:1 binding model.

[3] = system: BC2 nanotrap; test: Immunoprecipitation of BC2-tagged proteins from HEK293T cell lysates with the BC2 nanotrap; format: binding; details: soluble protein fraction of HEK293T cells, immunoblot
Description: (d) The BC2 nanotrap binds BC2-tagged proteins from human cell lysates irrespectively whether the BC2 tag is located at the N- or the C-terminus. For immunoprecipitation of BC2-tagged proteins soluble protein fractions of HEK293T cells expressing BC2TeGFP, eGFPBC2T or solely eGFP were incubated with the BC2 nanotrap as described in (a). Input (I), non-bound (NB) and bound fractions (B) were separated by SDS-PAGE and visualized either by Coomassie Blue staining (top) or immunoblot analysis (bottom).
(a) For immunoprecipitation soluble protein fractions of HEK293T cells either expressing eGFP-PCNA (control) or BC2-tagged eGFP-PCNA (eGFP-PCNABC2T) (left panel) or mCherry-Vimentin (mCherry-VIM, control) or BC2-lagged mCherry-VIM (mCherry-VIMBC2T) were incubated with the BC2 nanotrap. Input (I), non-bound (NB) and bound fractions (B) were separated by SDS-PAGE and visualized either by immunoblot analysis using anti-PCNA or anti-Vimentin antibodies (upper panel). As loading control, blots were probed with an anti-GAPDH antibody (lower panel).
The BC2-capture system was further analyzed for one-step purification of recombinant proteins derived from human cells Specifically, it was investigated whether the terminal position of the BC2-tag has an impact on binding. […]
Next, it was tested whether the BC2 nanotrap can precipitate BC2-tagged cellular components of the intermediate filaments or the nuclear replication machinery BC2T was genetically fused either to mCherry-vimentin (mCherry-VIMBC2T) or eGFP-PCNA (eGFP-PCNABC2T) and both constructs were expressed in HEK293T cells. […] Soluble protein extracts were incubated with the BC2 nanotrap and whole lysate (input), non-bound and bound fractions were analyzed by immunoblotting using anti-vimentin or anti-PCNA antibodies. […]
HEK293T cells transiently expressing eGFP, eGFPBC2T or BC2TeGFP, eGFP-PCNA, eGFP-PCNABC2T, mCherry-Vimentin, mCherry-VimentinBC2T were washed and harvested in phosphate buffered saline (PBS), snap-frozen in liquid nitrogen and stored at −20° C. Cell pellets were homogenized in 200 μl lysis buffer (10 mM Tris/Cl pH 7.3, 150 mM NaCl, 0.5% NP40, 1 μg DNaseI, 2 mM MgCl2, 2 mM PMSF, 1× protease inhibitor mix M (Serva) by repealed pipetting for 40 min on ice. After a centrifugation step (10 min at 18.000×g) the protein concentration of each lysate was determined using a Pierce BCA Protein Assay Kit (Thermo Fisher Scientific) according to manufacturer's protocol and the protein solutions were adjusted with dilution buffer (10 mM Tris/Cl pH 7.5, 150 mM NaCl, 2 mM PMSF) to a concentration of 1 mg/ml, 2% of the supernatant were added to SDS-containing sample buffer (referred to as input). […] Samples were analyzed by SDS-PAGE followed by immunoblotting. […]

[4] = system: BC2 nanotrap; test: Immunoprecipitation of BC2-tagged GFP from E. coli lysate with the BC2 nanotrap; format: binding; details: soluble protein fraction of E. coli, SDS-PAGE, Coomassie and/or anti-GFP immunoblot

BC2 nanotrap, sequence (as listed by the source): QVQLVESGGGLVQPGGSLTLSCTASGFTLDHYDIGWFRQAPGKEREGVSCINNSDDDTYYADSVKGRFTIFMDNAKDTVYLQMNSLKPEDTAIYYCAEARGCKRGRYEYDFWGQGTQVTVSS
BC2-Nb, sequence (as listed by the source): as above

PDRKAAVSHWQQ [BC2T]
GFPBC2T detected in elution fraction ([1]; 0.1 mM BC2 peptide): ~60% | GFPBC2T detected in elution fraction ([1]; 1 mM BC2 peptide): ~80% | kon (M^−1s^−1) [2]: 1.9 ± 0.1 × 10^5 M^−1s^−1 | pKd [2]: 8.59 | koff (s^−1) [2]: 5.0 ± 0.1 × 10^−4 s^−1

PDRVRAVSHWSS [pTag1]
dissociation rate constant koff slower than for original BC2T [2]: 7 × | kon (M^−1s^−1) [2]: 9.2 ± 0.5 × 10^4 M^−1s^−1 | pKd [2]: 9.15 | koff (s^−1) [2]: 6.8 ± 0.4 × 10^−5 s^−1

eGFPBC2T: modified GFP comprising the BC2-tag on the C-terminus, expressed in HEK293T cells (eGFP-PDRKAAVSHWQQ; also: BC2 tag fused to the C-terminus of eGFP)
precipitation by the BC2 nanotrap from HEK293T lysate [3]: efficiently precipitated

mCherry-VIMBC2T: BC2T genetically fused to the C-terminus of mCherry-Vimentin
precipitation by the BC2 nanotrap from HEK293T lysate [3]: efficiently precipitated

GFPBC2T: GFP with a C-terminal BC2 tag, expressed in E. coli
precipitation by the BC2 nanotrap from E. coli lysate [4]: quantitatively precipitates | elution with MgCl2 ([1]; MgCl2 0.5 M-4 M, data not shown): does not elute | release of bound protein ([1]; alkaline elution, pH 11 and 12): 40-80%

BC2TeGFP: modified GFP comprising the BC2-tag on the N-terminus, expressed in HEK293T cells (PDRKAAVSHWQQ-eGFP; also: BC2 tag fused to the N-terminus of eGFP)
precipitation by the BC2 nanotrap from HEK293T lysate [3]: efficiently precipitated

GFPBC2T-8: GFP C-terminally fused to BC2T-8 ({GFP}-RKAAVSHW; also: BC2T-8 tag fused to the C-terminus of GFP)
precipitation by the BC2 nanotrap from E. coli lysate [4]: in a comparable manner as GFP tagged with the original BC2T

RKAAVSHW (Epitope peptide 8 aa) [BC2T-8]
precipitation by the BC2 nanotrap from E. coli lysate [4]: efficiently recognized

eGFP-PCNABC2T: BC2T genetically fused to the C-terminus of eGFP-PCNA
precipitation by the BC2 nanotrap from HEK293T lysate [3]: efficiently precipitated

ADRVRAVSHWSS [pTag2]
kon (M^−1s^−1) [2]: 1.1 ± 0.1 × 10^5 M^−1s^−1 | pKd [2]: 8.72 | koff (s^−1) [2]: 2.0 ± 0.1 × 10^−4 s^−1

GFPBC2T-10: GFP C-terminally fused to BC2T-10 ({GFP}-PDRKAAVSHW; also: BC2T-10 tag fused to the C-terminus of GFP)
precipitation by the BC2 nanotrap from E. coli lysate [4]: in a comparable manner as GFP tagged with the original BC2T

PDRKAAVSHW (Epitope peptide 10 aa) [BC2T-10]
precipitation by the BC2 nanotrap from E. coli lysate [4]: efficiently recognized
